Test results as given in PubChem BioAssay (NCI).
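Grown in 96-well plates, cells were treated for 48 hours with each compound at five concentrations. Insufficient inhibition: endpoint recorded as highest concentration tested. GI50 marks 50% less growth. The concentration for full growth arrest is given as TGI.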

Key:
Assay in all cases: NCI anticancer screen, dose series, 48 h
HCC-2998 colon = test system: HCC-2998 colon
HT29 colon = test system: HT29 colon
K-562 leukemia = test system: K-562 leukemia
LOX IMVI melanoma = test system: LOX IMVI melanoma
M14 melanoma = test system: M14 melanoma
SF-268 CNS = test system: SF-268 CNS
SF-295 CNS = test system: SF-295 CNS
SK-MEL-5 melanoma = test system: SK-MEL-5 melanoma
UO-31 renal = test system: UO-31 renal
MCF7 breast = test system: MCF7 breast

| SMILES | GI50 (HCC-2998 colon) [µM] | TGI (HCC-2998 colon) [µM] | GI50 (HT29 colon) [µM] | TGI (HT29 colon) [µM] | GI50 (K-562 leukemia) [µM] | TGI (K-562 leukemia) [µM] | GI50 (LOX IMVI melanoma) [µM] | TGI (LOX IMVI melanoma) [µM] | GI50 (M14 melanoma) [µM] | TGI (M14 melanoma) [µM] | GI50 (SF-268 CNS) [µM] | TGI (SF-268 CNS) [µM] | GI50 (SF-295 CNS) [µM] | TGI (SF-295 CNS) [µM] | GI50 (SK-MEL-5 melanoma) [µM] | TGI (SK-MEL-5 melanoma) [µM] | GI50 (UO-31 renal) [µM] | TGI (UO-31 renal) [µM] | TGI (MCF7 breast) [µM] | GI50 (MCF7 breast) [µM] |
| --- | --- | --- | --- | --- | --- | --- | --- | --- | --- | --- | --- | --- | --- | --- | --- | --- | --- | --- | --- | --- |
| CC(=O)[CH-]C(=O)c1ccccc1.CC(=O)[CH-]C(=O)c1ccccc1.CCN(CC)CC[O-].CCN(CC)CC[O-].Cl.[Ti+4] | 23.1 | 76.6 | 24 | 59.6 | 37.8 | > 100 | 43.4 | > 100 | 22.5 | 45.9 | 35.2 | > 100 | 37.9 | 86.7 | 27.9 | > 100 | 21.1 | 74.8 |  |  |
| CC1=COC(=O)c2ccccc2N1 |  | > 100 |  | > 100 |  | > 100 |  | > 100 |  | > 100 |  | > 100 |  | > 100 |  | > 100 |  | > 100 |  |  |
| CCOP(=O)(OCC)C1C(=O)O[C@H]2CCCC[C@@H]12 (some centres undefined) |  | > 100 |  | > 100 |  | > 100 |  | > 100 |  | > 100 |  | > 100 |  | > 100 |  | > 100 |  |  |  |  |
| NNC(=O)/C(=C/c1cccc([N+](=O)[O-])c1)NC(=O)c1ccccc1 |  | > 100 |  | > 100 |  | > 100 |  | > 100 |  | > 100 |  | > 100 |  | > 100 |  | > 100 |  | > 100 |  |  |
| NC(N)=NS(=O)(=O)c1ccc(NC(=O)c2cccc3c(Nc4ccc(S(=O)(=O)N=C(N)N)cc4)c4ccc(Cl)cc4nc23)cc1 |  | > 100 |  | > 100 |  | > 100 |  | > 100 |  | > 100 |  | > 100 |  | > 100 |  | > 100 |  | > 100 |  |  |
| C/C(=N\N(C)C)c1sc(-n2nc(-c3ccccc3)cc2-c2ccccc2)nc1C |  | > 100 |  | > 100 |  | > 100 |  | 35.3 |  | > 100 |  | > 100 |  | > 100 |  | > 100 |  | > 100 |  |  |
| CCCCN(CCCC)C(=O)C(=O)CC(=O)c1ccc(Br)cc1 |  | > 100 |  | > 100 |  | > 100 |  | > 100 |  | > 100 |  | > 100 |  | > 100 |  | > 100 |  | > 100 |  |  |
| COc1c(OC(C)=O)ccc(/C=C2\N=C(C)OC2=O)c1[N+](=O)[O-] |  | > 100 |  | > 100 |  | > 100 |  | > 100 |  | > 100 |  | > 100 |  | > 100 |  | > 100 |  | > 100 |  |  |
| Cc1ccc2c(c1)NC(c1ccc(C(=O)O)cc1)c1cccn1-2 (centres undefined) |  |  |  | > 100 |  | > 100 |  | > 100 |  | > 100 |  |  |  | > 100 |  | > 100 |  |  | > 100 |  |
| Cn1nc(-c2ccccc2NC(=O)C(F)(F)F)c(=O)n(C)c1=S |  | > 100 |  | 53.8 |  | 66.8 |  | > 100 |  | 45 |  | 56 |  | > 100 |  | > 100 |  | 74.4 |  |  |
| Cc1cc(Br)cc(C)c1NC(=O)C(=O)CC(=O)c1sc(-n2nc(-c3ccccc3)cc2-c2ccccc2)nc1C |  | > 100 |  | > 100 |  | > 100 |  | > 100 |  | > 100 |  | > 100 |  | > 100 |  |  |  | > 100 |  |  |
| O=C1C2=C(c3ccccc31)C(c1cccc(Cl)c1)NC(=S)N2 (centres undefined) |  | > 100 |  | > 100 |  | > 100 |  |  |  | > 100 |  | > 100 |  | > 100 |  | > 100 |  | > 100 |  |  |
| COc1ccc(-c2oc3cc(O)c(OC)c(O)c3c(=O)c2OC2OC(CO)C(O)C(O)C2O)cc1 (centres undefined) |  | > 100 |  | > 100 |  | > 100 |  | > 100 |  | > 100 |  |  |  | > 100 |  | > 100 |  | > 100 |  |  |
| COC1C=C(Nc2cccc(Cl)c2)C(=O)C1 (centres undefined) |  | > 100 |  | > 100 |  | > 100 |  | > 100 |  | > 100 |  | > 100 |  | > 100 |  | > 100 |  | > 100 |  |  |
| CC(Cc1ccc(Cl)cc1Cl)NO (centres undefined) |  |  |  | > 100 |  | > 100 |  | > 100 |  | > 100 |  | > 100 |  | > 100 |  | > 100 |  | > 100 | > 100 |  |
| C1CCC([PH+](C2CCCCC2)C2CCCCC2[PH+](C2CCCCC2)C2CCCCC2)CC1.[Au].[CH-]1CCCCC1C1CCCC[N-]1 (centres undefined) |  |  |  |  | 0.229 | > 100 |  |  | 0.425 | 2.27 |  |  | 0.256 | 0.901 | 0.179 | 0.332 | 1.36 | 2.69 |  |  |
| C=C(c1ccccc1N)[C@@]1(O)C[C@H](/C(=C\C)CO)C[C@@H]1NCc1ccccc1 |  | 30.9 |  | 32.7 |  | 39.5 |  | 31.6 |  | 28.5 |  | > 100 |  | 30.5 |  | 32.8 |  | 42.3 |  |  |
| CCOC(=O)C1C=C2O[C@@H]3OC4(CCCCC4)O[C@@H]3C2[C@H]2C(=O)C=CC(=O)[C@@]12C(=O)OC (some centres undefined) |  | 28 |  | 19.4 |  | 34.2 |  | 32.9 |  | 30.1 |  | 29.6 |  | 32.6 |  | 33.9 |  | 29.9 |  |  |
| Cc1ccc(-c2c(C#N)c(N)nc(N3CCOCC3)c2C#N)o1 |  |  | 30.1 | > 100 | 73.8 | > 100 |  |  | 87.9 | > 100 | > 100 | > 100 |  |  | 40.5 | > 100 | 21.2 | 84 | > 100 | 64.9 |
| CCOC(=O)/N=c1\ss/c(=N\C(=S)N(C)C)n1-c1ccccc1 | > 100 | > 100 |  | > 100 |  | > 100 |  | > 100 | > 100 | > 100 | 44.7 | > 100 |  | > 100 | 18.8 | > 100 | > 100 | > 100 |  |  |
| S=c1[nH]nc(COc2ccc(Cl)cc2)o1 |  | > 100 |  | > 100 |  | > 100 |  |  |  | > 100 |  | > 100 |  | > 100 |  | > 100 |  | > 100 |  |  |
| CC(C)=CC(=O)CC(=O)C(=O)Nc1ccc(C)c(C)c1 |  |  |  | > 100 |  | > 100 |  | > 100 |  | > 100 |  | > 100 |  | > 100 |  |  |  | > 100 |  |  |
